In patent publication US20100113510A1 (priority 2006, published 2010):
pIC50: −log10 of the molar value. Read-outs that look alike come from different tables or passages of the source.

Target: T1, human muscarinic acetylcholine M3 receptor (M3-ACh) (Homo sapiens, UniProt P20309)
T1 construct: expressed in transfected cells; host or cells: CHO-K1 (Chinese Hamster Ovary) cell membranes
Experiment: biochemical
Assay type: binding

[1] = pIC50 (M3 Binding IC50 classes)

T1 sequence (P20309 whole entry): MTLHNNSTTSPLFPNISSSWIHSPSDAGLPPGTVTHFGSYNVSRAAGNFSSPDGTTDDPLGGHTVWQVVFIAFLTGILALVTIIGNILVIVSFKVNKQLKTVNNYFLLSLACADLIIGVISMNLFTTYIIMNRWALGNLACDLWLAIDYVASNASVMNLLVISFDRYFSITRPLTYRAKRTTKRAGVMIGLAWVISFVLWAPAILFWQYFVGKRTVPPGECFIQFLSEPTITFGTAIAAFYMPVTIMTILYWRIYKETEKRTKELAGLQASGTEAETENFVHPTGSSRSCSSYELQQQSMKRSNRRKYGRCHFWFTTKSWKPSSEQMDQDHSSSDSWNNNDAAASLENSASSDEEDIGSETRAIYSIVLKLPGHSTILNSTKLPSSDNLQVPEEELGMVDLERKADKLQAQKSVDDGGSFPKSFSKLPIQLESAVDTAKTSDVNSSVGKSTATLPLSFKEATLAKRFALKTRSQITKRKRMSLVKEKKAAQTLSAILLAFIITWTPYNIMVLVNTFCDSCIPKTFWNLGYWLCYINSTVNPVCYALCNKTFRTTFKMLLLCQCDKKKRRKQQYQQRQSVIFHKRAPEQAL

CC(C(=O)O[C@H]1C[N+]2(CCc3cccc(F)c3)CCC1CC2)(c1ccccc1)N1CCCCCC1 (single isomer, unassigned) [Example 92]
pIC50 [1]: > 8.70

CC(C(=O)O[C@H]1C[N+]2(CC(=O)c3cccc(F)c3)CCC1CC2)(c1cccs1)N1CCCCC1 (single isomer, unassigned) [Example 67]
pIC50 [1]: > 8.70

CC(C(=O)O[C@H]1C[N+]2(CCCOc3ccccc3)CCC1CC2)(c1ccccc1)N1CCCCCC1 (single isomer, unassigned) [Example 97]
pIC50 [1]: > 8.70

CC(C(=O)O[C@H]1C[N+]2(CC(=O)Nc3cccc(F)c3)CCC1CC2)(c1cccs1)N1CCSCC1 (single isomer, unassigned) [Example 53]
pIC50 [1]: > 8.70

CC(C(=O)O[C@H]1C[N+]2(CC(=O)Nc3noc4ccccc34)CCC1CC2)(c1cccs1)N1CCCCC1 (single isomer, unassigned) [Example 77]
pIC50 [1]: > 8.70

CC(C(=O)O[C@H]1C[N+]2(CC(=O)Nc3cnccn3)CCC1CC2)(c1cccs1)N1CCSCC1 (single isomer, unassigned) [Example 54]
pIC50 [1]: > 8.70

C[C@@](C(=O)O[C@H]1C[N+]2(CC(=O)c3ccccc3)CCC1CC2)(c1ccccc1)N1CCCCC1 [Example 9, (3R)-l-(2-Oxo-2-phenylethyl)-3-{[(2S)-2-phenyl-2-piperidin-1-ylpropanoyl]oxy}-1-azoniabicyclo[2.2.2]octane bromide]
pIC50 [1]: > 8.70

C[C@@](C(=O)O[C@H]1C[N+]2(CC(=O)c3ccc(F)cc3F)CCC1CC2)(c1ccccc1)N1CCCCC1 [Example 5, (3R)-1-[2-(2,4-Difluorophenyl)-2-oxoethyl]-3-{[(2S)-2-phenyl-2-piperidin-1-ylpropanoyl]oxy}-1-azoniabicyclo[2.2.2]octane chloride]
pIC50 [1]: 8.00 to 8.70

Cc1cnc(NC(=O)C[N+]23CCC(CC2)[C@@H](OC(=O)C(C)(c2ccccc2)N2CCCCCC2)C3)cn1 (single isomer, unassigned) [Example 91]
pIC50 [1]: > 8.70

C[C@@](C(=O)O[C@H]1C[N+]2(CC(=O)c3sccc3Cl)CCC1CC2)(c1ccccc1)N1CCCCC1 [Example 4, (3R)-1-[2-(3-Chloro-2-thienyl)-2-oxoethyl]-3-{[(2S)-2-phenyl-2-piperidin-1-ylpropanoyl]oxy}-1-azoniabicyclo[2.2.2]octane bromide]
pIC50 [1]: 8.00 to 8.70

CC(C(=O)O[C@H]1C[N+]2(CC(=O)Nc3ccon3)CCC1CC2)(c1ccccc1)N1CCCCCC1 (single isomer, unassigned) [Example 90]
pIC50 (pIC50): 9.20
pIC50 [1]: > 8.70

CC(C(=O)O[C@H]1C[N+]2(CCc3cccc(Cl)c3)CCC1CC2)(c1ccccc1)N1CCOCC1 (single isomer, unassigned) [Example 79]
pIC50 [1]: > 8.70

Cc1cc(OCCC[N+]23CCC(CC2)[C@@H](OC(=O)C(C)(c2cccs2)N2CCCCC2)C3)cc(C)n1 (single isomer, unassigned) [Example 81]
pIC50 [1]: 8.00 to 8.70

CC(C(=O)O[C@H]1C[N+]2(Cc3nc(-c4ccccc4)no3)CCC1CC2)(c1cccs1)N1CCSCC1 (single isomer, unassigned) [Example 56]
pIC50 [1]: > 8.70

C[C@@](C(=O)O[C@H]1C[N+]2(CC(=O)Nc3ccc4ncnn4c3)CCC1CC2)(c1ccccc1)N1CCCCC1 [Example 13, (3R)-1-[2-Oxo-2-([1,2,4]triazolo[1,5-a]pyridin-6-ylamino)ethyl]-3-{[(2S)-2-phenyl-2-piperidin-1-ylpropanoyl]oxy}-1-azoniabicyclo[2.2.2]octane chloride]
pIC50 [1]: > 8.70

Cc1ccc(OCC[N+]23CCC(CC2)[C@@H](OC(=O)C(C)(c2cccs2)N2CCCCC2)C3)c(C)n1 (single isomer, unassigned) [Example 66]
pIC50 [1]: 8.00 to 8.70

CC(C(=O)O[C@H]1C[N+]2(CCc3ccccc3)CCC1CC2)(c1ccccc1)N1CCCCCC1 (single isomer, unassigned) [Example 93]
pIC50 [1]: > 8.70

CC(C(=O)O[C@H]1C[N+]2(CCCc3ccccc3)CCC1CC2)(c1ccccc1)N1CCCCCC1 (single isomer, unassigned) [Example 94]
pIC50 [1]: > 8.70

CN(C(=O)C[N+]12CCC(CC1)[C@@H](OC(=O)C(C)(c1cccs1)N1CCCCC1)C2)c1cccc(F)c1 (single isomer, unassigned) [Example 109]
pIC50 [1]: 8.00 to 8.70

CC(C(=O)O[C@H]1C[N+]2(CCCc3ccccc3)CCC1CC2)(c1cccs1)N1CCSCC1 (single isomer, unassigned) [Example 50]
pIC50 [1]: > 8.70

CC(C(=O)O[C@H]1C[N+]2(CCCc3cccnc3)CCC1CC2)(c1ccccc1)N1CCSCC1 (single isomer, unassigned) [Example 106]
pIC50 [1]: 8.00 to 8.70

C[C@@](C(=O)O[C@H]1C[N+]2(CC[C@H](O)c3ccccc3)CCC1CC2)(c1ccccc1)N1CCCCC1 [Example 38]
pIC50 [1]: > 8.70

CC(C(=O)O[C@H]1C[N+]2(CCc3cccc(Cl)c3)CCC1CC2)(c1ccccc1)N1CCSCC1 (single isomer, unassigned) [Example 99]
pIC50 [1]: 8.00 to 8.70

C[C@@](C(=O)O[C@H]1C[N+]2(CC(=O)NCc3ccccc3)CCC1CC2)(c1ccccc1)N1CCCCC1 [Example 16, (3R)-1-[2-(Benzylamino)-2-oxoethyl]-3-{[(2S)-2-phenyl-2-piperidin-1-ylpropanoyl]oxy}-1-azoniabicyclo[2.2.2]octane chloride]
pIC50 [1]: 8.00 to 8.70

Cc1nc(-c2ccccc2)c(NC(=O)C[N+]23CCC(CC2)[C@@H](OC(=O)[C@](C)(c2ccccc2)N2CCCCC2)C3)s1 [Example 18, (3R)-1-{2-[(2-Methyl-4-phenyl-1,3-thiazol-5-yl)amino]-2-oxoethyl}-3-{[(2S)-2-pheny1-2-piperidin-1-ylpropanoyl]oxy}-1-azoniabicyclo[2.2.2]octane chloride]
pIC50 [1]: 8.00 to 8.70

Cc1nc(-c2ccc(OCC[N+]34CCC(CC3)[C@@H](OC(=O)[C@](C)(c3ccccc3)N3CCCCC3)C4)cc2)no1 [Example 43, (3R)-1-{2-[4-(5-Methyl-1,2,4-oxadiazol-3-yl)phenoxy]ethyl}-3-{[(2S)-2-phenyl-2-piperidin-1-ylpropanoyl]oxy}-1-azoniabicyclo[2.2.2]octane bromide]
pIC50 [1]: 8.00 to 8.70

CC(C(=O)O[C@H]1C[N+]2(CCc3cccc(Cl)c3)CCC1CC2)(c1ccccc1)N1CCCCCC1 (single isomer, unassigned) [Example 87]
IC50 (read-out: pIC50 (M3 Binding IC50 classes) (converted)): < 2 nM

CC(C(=O)O[C@H]1C[N+]2(CCCc3ccccc3)CCC1CC2)(c1ccccc1)N1CCSCC1 (single isomer, unassigned) [Example 104]
pIC50 [1]: > 8.70

CC(C(=O)O[C@H]1C[N+]2(CC(=O)Nc3ccon3)CCC1CC2)(c1ccccc1)N1CCSCC1 (single isomer, unassigned) [Example 102]
pIC50 [1]: > 8.70

CC(C(=O)O[C@H]1C[N+]2(CC(=O)Nc3ccccc3)CCC1CC2)(c1ccccc1)N1CCCCCC1 (single isomer, unassigned) [Example 89]
pIC50 [1]: > 8.70

CC1(C)CN(C(C)(C(=O)O[C@H]2C[N+]3(CCCOc4ccccc4)CCC2CC3)c2ccc(Cl)cc2)C1 (single isomer, unassigned) [Example 47]
pIC50 [1]: > 8.70

CC(C(=O)O[C@H]1C[N+]2(CC(=O)Nc3ccon3)CCC1CC2)(c1ccccc1)N1CCCCCC1 (single isomer, unassigned) [Example 111]
pIC50 [1]: 8.00 to 8.70

CC(C(=O)O[C@H]1C[N+]2(CCCOc3ccccc3)CCC1CC2)(c1ccccc1)N1CCSCC1 (single isomer, unassigned) [Example 107]
pIC50 [1]: > 8.70
